Columns and labels:
[1] = tested on: NG isolate from the Phase 2 clinical trial with ParC D86N mutation; assay type: cell-based, Neisseria gonorrhoeae
Description: 10 mL of an initial bacterial density of 10^6 colony forming units (CFU)/mL was inoculated into the hollow-fiber cartridge (Fibercell Systems, Frederick, Md.), utilizing modified FB medium.
Samples were collected for observation of simulated pharmacokinetic profiles and enumeration of bacterial burden over the study duration. All bacterial samples were plated on drug-free and agar supplemented with 2×the agar MIC value of each respective challenge compound.

[2] = Single-dose PK (saliva, urine, plasma) in participants with hepatic impairment and matched controls; assay type: in vivo, human; details: 1500 mg orally
Description: (§1) Gepotidacin exposures were assessed in plasma and other matrices, such as urine, saliva, epithelial lining fluid (ELF), Alveolar Macrophages (AM), cervix, rectum and pharynx, as follows: • 1. […] Urine, plasma, cervix, rectum and pharynx swabs: • In a Phase 2a, single-center, single-arm, open-label study in the Unites States from July 2018 to January 2019 (see Overcash et al., Open Forum Infectious Diseases, Volume 6, Issue Supplement 2, October 2019, Page S539, https://doi.org/10.1093/ofid/ofz360.1343, incorporated herein by reference in its entirety), a total of 22 female participants with uncomplicated Urinary Tract Infection (uUTI) were enrolled and evaluated for pharmacokinetics (PK), safety, and clinical efficacy. […] Gepotidacin exposures in urine, cervix, rectum and pharynx were assessed.
(§2) Saliva, Urine and Plasma concentrations were determined after administration of gepotidacin 750 mg IV (healthy and renally impaired subjects) and 1500 mg orally (healthy and hepatically impaired subjects, as well as uUTI patients). […]

[3] = Single-dose PK (saliva, urine, plasma) in subjects with renal impairment and matched controls; assay type: in vivo, human
Description: Gepotidacin exposures were assessed in plasma and other matrices, such as urine, saliva, epithelial lining fluid (ELF), Alveolar Macrophages (AM), cervix, rectum and pharynx, as follows: • 1. Plasma, Epithelial Lining Fluid (ELF) and Alveolar Macrophage (AM) samples: A study to evaluate plasma and pulmonary pharmacokinetics (PK) following intravenous administration of gepotidacin in healthy adult subjects was conducted (see M Hossain, EF Dumont. Population Pharmacokinetic Modeling of Plasma and Epithelial Lining Fluid Data for a Novel Antimicrobial Compound. 54th Annual Interscience Conference on Antimicrobial Agents and Chemotherapy Meeting, 5-9 September 2014, Washington, D.C., USA, incorporated herein by reference in its entirety) • 2. Saliva, Urine and plasma samples: • a. A single-dose study to assess the PK of oral gepotidacin in male and female adult participants with varying degrees of hepatic impairment and in matched control participants with normal hepatic function (J. Hands et al. Pharmacokinetics of Gepotidacin in Subjects with Hepatic Impairment. ID Week, 2-6 Oct. 2019, Washington D.C., USA, incorporated herein by reference in its entirety) • b. A single-dose study to assess the PK of gepotidacin in adult subjects with varying degrees of renal impairment and in matched control subjects with normal renal function • 3. Urine, plasma, cervix, rectum and pharynx swabs: • In a Phase 2a, single-center, single-arm, open-label study in the Unites States from July 2018 to January 2019 (see Overcash et al., Open Forum Infectious Diseases, Volume 6, Issue Supplement 2, October 2019, Page S539, https://doi.org/10.1093/ofid/ofz360.1343, incorporated herein by reference in its entirety), a total of 22 female participants with uncomplicated Urinary Tract Infection (uUTI) were enrolled and evaluated for pharmacokinetics (PK), safety, and clinical efficacy. Participants were confined to the clinic from baseline (Days −1 to 1 predose) through on-therapy (Days 1 to 5) and returned as outpatients for test-of-cure (TOC; Days 10 to 13) and follow-up (Day 28±3). Participants received oral gepotidacin 1,500 mg twice daily (BID) for 5 days. […] The majority of participants were white, age ranged from 19 to 60 years, and body mass index ranged from 20.9 to 37.9 kg/m^2. The number of past uUTI episodes ranged from 0 to 10 over the past 12 months across participants; the majority of participants reported episodes. […] Gepotidacin exposures in urine, cervix, rectum and pharynx were assessed.
as §2

Neisseria gonorrhoeae = details: cited from earlier work
[4] = Plasma and pulmonary (ELF, AM) pharmacokinetics after intravenous gepotidacin in healthy adult subjects; assay type: in vivo, human; details: single IV infusion 1000 mg over 2 hours
Description: as §1
Plasma, Epithelial Lining Fluid (ELF) and Alveolar Macrophage (AM) PK were assessed following a single IV infusion of 1000 mg gepotidacin over 2 hours. […]

[5] = Safety and pharmacokinetics in healthy adults and adolescents (Example 3); assay type: in vivo, human
Description: Healthy adults and adolescents within the age ranges of 19-64 and 12-17 years old, respectively, participated in the study.
In Part 1 of the study, gepotidacin was administered with food to healthy adults 18 years) in period 1 (1500 mg oral single dose), followed by period 2 (3000 mg×2 oral doses Q12 h) and period 3 (3000 mg×2 oral doses Q6 h).
In Part 2 of the study, gepotidacin was administered with food to adolescents (12 to <18 years) at the same dose regimens as period 1 (1500 mg oral single dose) and period 3 (3000 mg×2 oral doses Q6 h).

[6] = Phase 2a study in female participants with uUTI: urine, plasma, cervix, rectum and pharynx swab PK and safety; assay type: in vivo, human
Description: as §1, §2

[7] = Period 1, 1500 mg oral single dose

## CO/N=C(\C(=O)N[C@@H]1C(=O)N2C(C(=O)O)=C(CSc3nc(=O)c(=O)[nH]n3C)CS[C@H]12)c1csc(N)n1 [ceftriaxone, reference compound]
[1]; simulated ciprofloxacin 0.5 g oral, ceftriaxone 0.25 g intramuscular, isolate ciprofloxacin-resistant, ceftriaxone-susceptible
  performance of control in hollow fibre infection model: performed as expected

## O=c1ccc2ncc(=O)n3c2n1C[C@H]3CN1CCC(NCc2cc3c(cn2)OCCC3)CC1 [gepotidacin, (2R)-2-({4-[(3,4-Dihydro-2H-pyrano[2,3-c]pyridin-6-ylmethyl)amino]-1-piperidinyl}methyl)-1,2-dihydro-3H,8H-2a,5,8a-triazaacenaphthylene-3,8-dione]
[2]; moderate hepatic impairment
  urinary exposure (AUC[0-48]) relative to matched healthy controls: approximately 3.2 fold
[2]; severe hepatic impairment
  urinary exposure (AUC[0-48]) relative to matched healthy controls: ~3.9 fold
[3]; ESRD subjects not on hemodialysis
  gepotidacin dose removed in the urine (fe %): 7.9%
[3]; ESRD subjects on hemodialysis
  gepotidacin dose excreted in the urine: Less than 2%
[3]; moderate renal impairment subjects
  gepotidacin dose removed in the urine (fe %): 22.1%
[3]; normal renal function subjects
  gepotidacin dose removed in the urine (fe %): 37.4%
Neisseria gonorrhoeae; number of the 8 participants with D86N-positive baseline urogenital NG isolates
  microbiological successes (bacterial eradication): 5
Neisseria gonorrhoeae; single oral doses of 1.5 g and 3 g
  efficacy (bacterial eradication) against urogenital infection caused by NG: ≥ 95%
Neisseria gonorrhoeae; single oral doses of 1500 and 3000 mg
  safety signals: no unexpected safety signals
Neisseria gonorrhoeae; total number, single oral 1500 or 3000 mg
  participants who failed therapy at the urogenital body site: 3
[4]
  AM AUC(0-12) relative to ELF: ~97 fold
  AM Cmax relative to ELF: approximately 120 fold
[1]; gepotidacin-resistant subpopulation on Day 7
  doses preventing amplification of resistance within the system: 4.5 g
[1]; including 2 x 3 g doses 8 or 12 hours apart
  total daily doses that prevented resistance amplification to gepotidacin: ≥ 4500 mg
[1]; simulated single oral dose free-drug plasma profiles, 0.75 to 12 g
  doses sterilizing the system over the seven-day period: ≥ 4.5 g
[5]; 1500 mg oral single dose, adults and adolescents, few mild GI AEs
  tolerability: generally well tolerated
[5]; [7]
  maximum concentration (Cmax), adolescents compared to adults: similar
  median area under the curve (AUC), adolescents compared to adults: slightly higher
[5]; Period 3, 3000 mg x 2 Q6 h
  AUC following the second dose, adolescents versus adults: higher
  Cmax following the second dose, adolescents versus adults: similar
[5]; adolescents, 3000 mg x 2 Q6 h
  subjects above the Cmax value of potential clinical concern: 58%
[5]; adults, 3000 mg
  AUC0-t following the first dose, Q12 h versus Q6 h: similar
[5]; adults, 3000 mg x 2
  accumulation ratios, Q6 h compared to Q12 h: Higher
[5]; adults, 3000 mg x 2 Q6 h
  subjects above the Cmax value of potential clinical concern: 46%
[5]; adults, 3000 mg x 2 Q12 h
  subjects above the Cmax value of potential clinical concern: 15%
[5]; in vivo
  safety issues related to QT or AchE-I: No observed safety issues related to QT or AchE-I
[6]; 1500 mg BID, uUTI patients, swabs and plasma
  rank order of gepotidacin free-drug concentrations: highest in rectal tissue; followed by cervical tissue, which was similar to plasma concentrations; followed by pharyngeal tissue
[6]; oral 1,500 mg BID for 5 days, 22 female uUTI participants
  discontinuations due to adverse events: no discontinuations due to adverse events

— patent publication US20210308131A1, “Treatment Regimen” (GlaxoSmithKline Intellectual Property Development Limited, priority 2020, published 2021)
